Eleven compounds from ChEMBL document CHEMBL1201862, “PubChem BioAssay data set” (2004) can be followed below.

Holding throughout (assay): NCI anticancer screen, dose series, 48 h
For test [1], the system named is OVCAR-8.
Test [2] has as its system UACC-62.
Test [3] concerns OVCAR-5.
For test [4], the system named is CAKI-1.
The test system of test [5] is NCI/ADR-RES.
Test [6] concerns Malme-3M.
Test [7] deals with U-251.
Test [8] deals with MCF7.
The subject of test [9] is SR.
Test [10] deals with NCI-H23.
In test [11] the test system is HCC 2998.
The subject of test [12] is MOLT-4.
For test [13], the system named is HCT-15.
Test [14] has as its system HOP-92.
The test system of test [15] is HL-60.
For test [16], the system named is HCT-116.
For test [17], the system named is EKVX.
The test system of test [18] is ACHN.
The test system of test [19] is SNB-19.
For test [20], the system named is RXF 393.

Each structure is given as a SMILES string.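 Method: 48-hour compound exposure of cells in 96-well plates, five concentrations, linear interpolation of endpoints. At the GI50, growth is halved.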 Activity calls are given as the source filed them. Cut-off read from the data, not from the text of the source: active = GI50 up to about 1.1 µM and inactive = higher. A value given as a limit tells only on which side of the number the result lay.

With `c1ccc2c(c1)c1c(n2CCOCCN2CCCC2)CCCC1`, the GI50 in test [1] was 22.4 µM (inactive); in [2], 18.6 µM (inactive); in test [3], 17.8 µM (inactive); in test [4], 27.2 µM (inactive); in test [5], 19 µM (inactive); in test [6], 17.1 µM (inactive). In addition, the GI50 in test [7] was 13.1 µM (inactive); in [8], 16 µM (inactive); in [9], 17.2 µM (inactive); in test [10] it was 22.6 µM (inactive); in test [11] it was 16.6 µM (inactive); in [12] it was 16.7 µM (inactive). Also, the GI50 was 17 µM in test [13]; 27.7 µM (inactive) in test [14]; 12.2 µM (inactive) in [15]; 17.1 µM (inactive) in test [16]; 25.9 µM (inactive) in test [17]; 20.1 µM (inactive) in [18].
Take `N#C[C@@]12CCCC(=O)[C@@H]1[C@H]1CCC[C@H]12`: the GI50 was 21.6 µM (inactive) in test [1]; 22.6 µM (inactive) in [2]; 9.46 µM (inactive) in test [3]; 16.3 µM (inactive) in [4]; 22.5 µM (inactive) in [5]; 13.6 µM (inactive) in [6]. Moreover, the GI50 in test [19] is 21.7 µM (inactive); in [7], 17.2 µM (inactive); in [8], 16.4 µM (inactive); in test [9], 26.1 µM (inactive); in [10], 16.1 µM (inactive); in test [11] it was 15.1 µM (inactive). Further, the GI50 was 21.2 µM (inactive) in [12]; 16.3 µM in [13]; 11.5 µM (inactive) in test [14]; 8.22 µM (inactive) in [15]; 15.5 µM (inactive) in test [16]; 13.2 µM (inactive) in [17]. In addition, the GI50 in test [18] is 17.7 µM (inactive).
Regarding `CC1(C)O[C@@H](CO)[C@H]([C@@]23OC[C@H]4OC(C)(C)OC4[C@@H]2OC(C)(C)O3)O1` (some centres undefined), the GI50 in [1], in test [3], in test [5], in [6], in test [19] and in [7] was > 100 µM (inactive) in each case. The GI50 in [20], in [8], in [9], in [10], in test [11] and in test [12] was > 100 µM (inactive) in each case. Moreover, the GI50 in [13] was > 100 µM; in [14], > 100 µM (inactive); in test [15], > 100 µM (inactive); in [16], > 100 µM (inactive); in test [17], > 100 µM (inactive); in [18], > 100 µM (inactive).
Take `Cc1nnc(N)nc1/C=C/c1c(O)ccc2ccccc12`: the GI50 in test [1] was 35.2 µM (inactive); in [2] it was 21.5 µM (inactive); in [3], 26.5 µM (inactive); in test [4], 36.4 µM (inactive); in test [5], 30.8 µM (inactive); in [19], 27 µM (inactive). Besides, the GI50 in test [7] is 38.7 µM (inactive); in test [20] it was 15.6 µM (inactive); in test [8], 32.8 µM (inactive); in test [9] it was 44.4 µM (inactive); in test [10] it was 24.8 µM (inactive); in test [11], 19.1 µM (inactive). The GI50 in test [12] was 22.5 µM (inactive); in [13], 17.3 µM; in test [14], 21.3 µM (inactive); in test [15], 28.2 µM (inactive); in test [16], 30.8 µM (inactive); in [17], 13.9 µM (inactive). In test [18], the GI50 was 13.1 µM (inactive).
Consider `O=C(NO)c1ccc(OCc2ccccc2)cc1`, for which the GI50 in [1] was 6.71 µM (inactive); in test [2], 14.9 µM (inactive); in [3], 27.4 µM (inactive); in test [4], 18.1 µM (inactive); in [5], 4 µM (inactive); in [19], 33.3 µM (inactive). In addition, the GI50 in [7] is 27.5 µM (inactive); in test [20], 26.7 µM (inactive); in test [8], 55.8 µM (inactive); in test [9] it was 14.1 µM (inactive); in test [10], 14.1 µM (inactive); in [11] it was 22.6 µM (inactive). The GI50 in [12] was 15.3 µM (inactive); in test [13], 15 µM; in test [14], 33.5 µM (inactive); in test [15] it was 16 µM (inactive); in test [16], 12.1 µM (inactive); in test [17] it was 20.7 µM (inactive). The GI50 in [18] is 22.3 µM (inactive).
`O=C(NN=C1CCCCC1)Nc1ccccc1Cl`: the GI50 in [1] was 62.5 µM (inactive); in test [2], 36.8 µM (inactive); in test [3] it was 54.2 µM (inactive); in test [4], 92.7 µM (inactive); in test [5], 24.1 µM (inactive); in test [6], 40.3 µM (inactive). Moreover, the GI50 was 64.3 µM (inactive) in [19]; 84.5 µM (inactive) in [7]; 34.2 µM (inactive) in test [8]; 22.5 µM (inactive) in test [9]; 57.8 µM (inactive) in test [10]; 59.3 µM (inactive) in [11]. The GI50 in test [12] was 47.8 µM (inactive); in [13], 39.6 µM; in test [14], 23.6 µM (inactive); in test [15], 29.6 µM (inactive); in test [16], 48.8 µM (inactive); in test [17], 52.8 µM (inactive). In addition, the GI50 in [18] is > 100 µM (inactive).
With `OC(c1cccnc1)C(F)(F)c1nc2ccccc2o1` (centres undefined), the GI50 in test [1], in test [2], in [4], in test [5], in [19] and in [7] was > 100 µM (inactive) each time. Also, the GI50 in test [20], in test [8], in test [9], in test [10], in [11] and in [12] was > 100 µM (inactive) throughout. In addition, the GI50 was > 100 µM in test [13]; > 100 µM (inactive) in [14]; > 100 µM (inactive) in [15]; > 100 µM (inactive) in test [16]; > 100 µM (inactive) in [17]; > 100 µM (inactive) in test [18].
For `CN(NC(=O)CCCl)C1=NCCCCN1`, the GI50 in [1], in [2], in test [3], in [5], in test [6] and in test [19] was > 100 µM (inactive) throughout. For the same compound, the GI50 in [7], in test [20], in [8], in [9], in test [10] and in [11] was > 100 µM (inactive) in each case. Moreover, the GI50 in test [12] is > 100 µM (inactive); in test [13], > 100 µM; in [14], > 100 µM (inactive); in test [15] it was > 100 µM (inactive); in test [16] it was > 100 µM (inactive); in test [17], > 100 µM (inactive). Moreover, the GI50 in test [18] was > 100 µM (inactive).
Turning to `NC(=S)N/N=C1\CCc2ccccc2C1`, the GI50 in test [1] is > 100 µM (inactive); in [2], 55 µM (inactive); in [3] it was > 100 µM (inactive); in test [5], > 100 µM (inactive); in [6] it was > 100 µM (inactive); in test [19], > 100 µM (inactive). Besides, the GI50 in test [7] was > 100 µM (inactive); in test [20], 80.4 µM (inactive); in test [8] it was 54.2 µM (inactive); in test [9], > 100 µM (inactive); in [10], > 100 µM (inactive); in test [11], > 100 µM (inactive). Moreover, the GI50 in test [12] was > 100 µM (inactive); in [13], > 100 µM; in [14] it was > 100 µM (inactive); in test [15], 34.7 µM (inactive); in test [16], > 100 µM (inactive); in [17], 27 µM (inactive). Besides, the GI50 in test [18] was > 100 µM (inactive).
With `O=C(Cc1ccccc1)NNc1nc(NNC(=O)c2ccncc2)nc(Nc2ccccc2)n1`, the GI50 in test [1], in test [2], in test [4], in [5], in [6] and in [7] was > 10 µM (inactive) throughout. Also, the GI50 in test [8] was > 10 µM (inactive); in [9], > 10 µM (inactive); in test [11] it was > 10 µM (inactive); in [12], > 10 µM (inactive); in test [13], > 10 µM; in [14] it was > 10 µM (inactive). In addition, the GI50 in [15] and in test [17] was > 10 µM (inactive) throughout.
On to `O=C1C(N2CCCC2)=CC(=O)c2c(O)c(N3CCCC3)c(Cl)c(O)c21`, for which the GI50 in test [2], in test [4], in [5], in test [6], in test [19] and in [7] was > 10 µM (inactive) each time. For the same compound, the GI50 in test [20], in test [8], in test [9], in [10], in test [11] and in test [12] was > 10 µM (inactive) in each case. For the same compound, the GI50 in test [14], in [15], in test [16], in test [17] and in test [18] was > 10 µM (inactive) throughout.
